Data reported in article PMC4229968, “The Inhibition of the Components from Shengmai Injection towards UDP-Glucuronosyltransferase” (Evidence-based Complementary and Alternative Medicine : eCAM, 2014).

Legend:
Type in all cases: in vitro ADME
UGT1A3 = target: T1, UGT1A3 (Homo sapiens, UniProt P35503); assay: Recombinant UGT1A3-catalyzed 4-MU glucuronidation inhibition; conditions: pH 7.4, probe 4-methylumbelliferone (4-MU), UGT1A3, 100 μM of compound, 4-MU substrate, read-out: residual activity
T1 construct: purchased BD Gentest Corp. (Woburn, MA, USA); host or cells: baculovirus-infected insect cells
T1 sequence (P35503 29-534): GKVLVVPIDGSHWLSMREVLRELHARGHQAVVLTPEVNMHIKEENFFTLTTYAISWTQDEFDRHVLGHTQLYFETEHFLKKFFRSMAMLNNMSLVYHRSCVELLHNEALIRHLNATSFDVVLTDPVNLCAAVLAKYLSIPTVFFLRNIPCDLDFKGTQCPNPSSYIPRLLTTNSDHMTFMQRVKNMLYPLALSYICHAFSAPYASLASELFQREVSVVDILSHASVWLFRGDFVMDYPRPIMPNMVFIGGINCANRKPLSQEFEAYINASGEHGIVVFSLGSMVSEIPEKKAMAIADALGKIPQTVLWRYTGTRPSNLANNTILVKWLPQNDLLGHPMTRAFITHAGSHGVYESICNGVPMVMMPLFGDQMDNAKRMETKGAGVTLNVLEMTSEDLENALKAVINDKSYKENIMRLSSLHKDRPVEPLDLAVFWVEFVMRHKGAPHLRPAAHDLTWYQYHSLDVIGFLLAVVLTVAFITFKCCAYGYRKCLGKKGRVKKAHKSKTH
Description: (§1) 4-Methylumbelliferone (4-MU), 4-methylumbelliferone-β-D-glucuronide (4-MUG), Tris-HCl, 7-hydroxycoumarin, and uridine-5′-diphosphoglucuronic acid (UDPGA) (trisodium salt) were purchased from Sigma-Aldrich (St. Louis, MO). Recombinant human UGT isoforms (UGT1A1, UGT1A3, UGT1A4, UGT1A6, UGT1A7, UGT1A8, UGT1A9, UGT1A10, UGT2B4, UGT2B7, and UGT2B15) expressed in baculovirus-infected insect cells were obtained from BD Gentest Corp. (Woburn, MA, USA). Ophiopogonin D (OD), ophiopogonin D′ (OD′), methylophiopogonanone A (MA), methylophiopogonanone B (MB), and ruscorectal (RU) were purchased from Sichuan Weikeqi Biotechnology Company (Chengdu, Sichuan, China). The purity of these compounds was above 95%. All other reagents were of HPLC grade or of the highest grade commercially available.
(§2) 4-MU, the nonspecific probe substrate for all the UGT isoforms except UGT1A4, was used in the present study to initially screen the inhibition potential of maidong's components towards UGT isoforms as previously reported. In brief, the incubation system (total volume = 200 μL) consisted of recombinant UGTs, 5 mM UDPGA, 5 mM MgCl2, 50 mM Tris-HCl (pH = 7.4), and 4-MU in the absence or presence of different concentrations of maidong's components. The compounds were dissolved in DMSO, and the final concentration of DMSO was below 0.5% (v/v). The used incubation time and protein concentration were previously determined to ensure the reaction rate within the linear range. The 4-MU concentration was equal to known K m or S 50 values for each UGT isoform. After 5 min preincubation at 37°C, the incubation reaction was initiated via adding UDPGA to the mixture system. The reactions were quenched by adding 100 μL acetonitrile with 7-hydroxycoumarin (100 μM) as internal standard. Centrifuged at 20000 ×g for 10 min, an aliquot of supernatant was transferred to an autoinjector vial for HPLC analysis. The HPLC system (Shimadzu, Kyoto, Japan) contained a SCL-10A system controller, two LC-10AT pumps, a SIL-10A autoinjector, and a SPD-10AVP UV detector. Chromatographic separation was carried out using a C18 column (4.6 × 200 mm, 5 μm, Kromasil) at a flow rate of 1 mL/min and UV detector at 316 nm. The mobile phase consisted of acetonitrile (A) and H2O containing 0.5% (v/v) formic acid (B). The following gradient condition was used: 0–15 min, 95–40% B; 15–20 min, 10% B; 20–30 min, 95% B.

UGT1A7 = target: T2, UGT1A7 (Homo sapiens, UniProt Q9HAW7); assay: Recombinant UGT1A7-catalyzed 4-MU glucuronidation inhibition; conditions: pH 7.4, probe 4-methylumbelliferone (4-MU), UGT1A7, 100 μM of compound, 4-MU substrate, read-out: residual activity
T2 construct: purchased BD Gentest Corp. (Woburn, MA, USA); host or cells: baculovirus-infected insect cells
T2 sequence (Q9HAW7 26-530): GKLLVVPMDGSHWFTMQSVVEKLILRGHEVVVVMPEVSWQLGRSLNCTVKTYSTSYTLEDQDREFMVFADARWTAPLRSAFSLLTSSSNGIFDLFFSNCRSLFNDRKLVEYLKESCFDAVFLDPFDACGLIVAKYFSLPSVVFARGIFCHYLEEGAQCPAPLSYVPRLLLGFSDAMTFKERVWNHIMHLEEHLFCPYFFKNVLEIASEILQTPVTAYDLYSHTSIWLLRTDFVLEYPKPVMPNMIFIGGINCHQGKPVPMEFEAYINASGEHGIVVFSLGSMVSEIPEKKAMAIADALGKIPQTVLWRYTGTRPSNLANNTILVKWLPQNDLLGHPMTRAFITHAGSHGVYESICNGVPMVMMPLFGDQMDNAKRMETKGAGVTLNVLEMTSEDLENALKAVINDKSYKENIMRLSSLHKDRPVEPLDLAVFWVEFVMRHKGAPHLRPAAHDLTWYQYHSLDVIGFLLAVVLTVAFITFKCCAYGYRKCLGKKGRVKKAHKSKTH
Description: as §1, §2

UGT1A10 = target: T3, UGT1A10 (Homo sapiens, UniProt Q9HAW8); assay: Recombinant UGT1A10-catalyzed 4-MU glucuronidation inhibition; conditions: for activity at 100 µM: UGT1A10, 100 μM of compound, 4-MU substrate, read-out: residual activity
T3 construct: purchased BD Gentest Corp. (Woburn, MA, USA); host or cells: baculovirus-infected insect cells
T3 sequence (Q9HAW8 26-530): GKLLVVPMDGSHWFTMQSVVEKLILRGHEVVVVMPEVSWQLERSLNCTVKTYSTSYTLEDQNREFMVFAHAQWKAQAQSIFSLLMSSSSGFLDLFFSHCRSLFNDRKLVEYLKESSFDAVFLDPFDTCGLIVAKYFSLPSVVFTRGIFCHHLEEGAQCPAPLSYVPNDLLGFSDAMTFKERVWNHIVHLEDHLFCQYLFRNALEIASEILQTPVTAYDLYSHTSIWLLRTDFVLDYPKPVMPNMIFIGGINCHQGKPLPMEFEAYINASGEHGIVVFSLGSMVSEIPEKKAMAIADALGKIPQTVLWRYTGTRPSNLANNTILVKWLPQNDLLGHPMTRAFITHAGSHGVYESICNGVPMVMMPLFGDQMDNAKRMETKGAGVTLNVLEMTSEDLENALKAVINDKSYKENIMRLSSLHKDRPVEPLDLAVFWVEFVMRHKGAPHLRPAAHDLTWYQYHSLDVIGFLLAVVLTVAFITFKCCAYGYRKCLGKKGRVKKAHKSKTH
Description: as §1, §2
To determine the inhibition kinetic type and parameters (K i), the reaction velocity (V) was determined at multiple concentrations of maidong's components and 4-MU (or TFP). Dixon plot and Lineweaver-Burk plot were used to fit the data. The inhibition kinetic type was evaluated through determining the intersection point in the Dixon and Lineweaver-Burk plots.
K m value is the substrate concentration in which the velocity reached half of the maximum velocity (V max) of the reaction. K i value is the inhibition constant.

[1] = human, pH 7.4, probe 4-methylumbelliferone (4-MU)

SMILES | activity at 100 µM (UGT1A3) | activity at 100 µM (UGT1A7) | activity at 100 µM (UGT1A10; [1]) | Ki (UGT1A10; UGT1A10-catalyzed 4-MU glucuronidation, read-out: inhibition kinetic parameter (Ki)) | inhibition type (UGT1A10; UGT1A10, Dixon and Lineweaver-Burk plots) | inhibition at 100 µM (UGT1A10; human, pH 7.4, probe 4-methylumbelliferone (4-MU), UGT1A10, at 100 μM, read-out: inhibition percent)
COc1ccc(C[C@@H]2COc3c(C)c(O)c(C)c(O)c3C2=O)cc1 [MB, methylophiopogonanone B] | 84.2 ± 22.8% | 83.4 ± 5.9% | 96.9 ± 7.3% | – | – | –
C[C@@H]1CC[C@@]2(OC1)O[C@H]1C[C@H]3[C@@H]4CC=C5C[C@@H](O[C@@H]6O[C@H](CO)[C@@H](O)[C@H](O[C@@H]7OC[C@@H](O)[C@H](O)[C@H]7O)[C@H]6O[C@@H]6O[C@@H](C)[C@H](O)[C@@H](O)[C@H]6O)CC[C@]5(C)[C@H]4CC[C@]3(C)[C@H]1[C@@H]2C [OD′, ophiopogonin D′] | 36.5 ± 2.5% | 122 ± 1.3% | 19.8 ± 3.2% | 9 µM | noncompetitively inhibited | 80.2%
Cc1c(O)c(C)c2c(c1O)C(=O)[C@H](Cc1ccc3c(c1)OCO3)CO2 [MA, methylophiopogonanone A] | 35.5 ± 6.1% | 57.5 ± 10.8% | 70 ± 9.3% | – | – | –
C[C@@H]1CC[C@@]2(OC1)O[C@H]1C[C@H]3[C@@H]4CC=C5C[C@@H](O)C[C@@H](O[C@@H]6O[C@H](C)[C@H](O)[C@H](O[C@@H]7OC[C@@H](O)[C@H](O)[C@H]7O)[C@H]6O[C@@H]6O[C@@H](C)[C@H](O)[C@@H](O)[C@H]6O)[C@]5(C)[C@H]4CC[C@]3(C)[C@H]1[C@@H]2C [OD, ophiopogonin D] | 40.7 ± 0.3% | 144 ± 8.7% | 26.5 ± 1.5% | – | – | –
CC1CCC2(OC1)OC1CC3C4CC=C5CC(O)CC(O)C5(C)C4CCC3(C)C1C2C (stereo not drawn) [RU, ruscorectal] | 37.2 ± 18.2% | 52.4 ± 7.4% | 82 ± 5.2% | – | – | –
